Source: paper PMC6232958 (Molecular Biology of the Cell, 2018)

System: CRM1-mediated nuclear export of EYFP2-SV40NLS-NES reporter in HeLa cells
Assay: Inhibition of reporter nuclear export by cotransfected RFP-NES or by LMB
Format: cell-based
Details: HeLa cells expressing EYFP2-SV40NLS-PKI NES treated with LMB (5 nM, 16-18 h)

Structure (SMILES): CCC(=C/[C@H](C)C/C=C/C(C)=C/[C@@H](C)C(=O)[C@@H](C)[C@H](O)[C@@H](C)C/C(C)=C/C(=O)O)/C=C/[C@@H]1OC(=O)C=C[C@@H]1C [leptomycin B]
- decrease of nuclear export of PKI NES: 92%
